{"source": "patent US7094428B2", "about": "“Hemostatic compositions, devices and methods” (The University of Medicine and Dentistry of New Jersey, priority 2000, dated 2006)", "key": {"[1]": {"system": "citrated blood anticoagulated with heparin", "experiment": "SONOCLOT clotting (recalcification) time of heparinized citrated blood", "format": "biochemical", "procedure": "(§1) Results were expressed as clotting time in seconds. […] Results are expressed as mean±standard deviation.\n(§2) Silver (I) ion was provided as silver nitrate, 5% stock solution. It was diluted 100 fold to 0.05%, or in some cases to 0.01% in the clotting studies. In perfusion studies, a 10 μl aliquot of the solution was applied to the filter paper then dried.\nCollagen was from Sigma Chemical Co. In the clotting time studies, the final concentration of collagen was 0.1-0.2%. Heparinase was from Haemoscope Corp. and used at a final concentration of 1 U/mL.\nRecalcification time was measured."}, "[2]": {"system": "recalcified, citrated whole blood", "experiment": "Blood perfusion (spread of blood disk) on filter paper impregnated with the composition", "procedure": "as §1, §2\nThe size of the blood disk on the paper was measured."}, "[3]": {"system": "recalcified, citrated whole blood", "experiment": "SONOCLOT clotting time of recalcified, citrated whole blood", "format": "biochemical", "procedure": "In such studies, anti-coagulated, citrated whole blood is recalcified to initiate the clotting process in a device which sensitively monitors the formation of the clot. Studies have been expanded from whole blood to include plasma.\nas §1, §2\nCollagen was from Sigma Chemical Co. […] Heparinase was from Haemoscope Corp. and used at a final concentration of 1 U/mL."}, "[4]": {"system": "Platelet Rich Plasma (PRP)", "settings": "2.9 mM AgNO3, n = 8", "procedure": "(§3) The hemostatic compositions of the invention were evaluated in two different systems. In one system, clotting time of recalcified, citrated whole blood in the presence of the hemostatic composition was determined using a SONOCLOT Coagulation Analyzer (Sienco Inc., Wheat Ridge Colo.). […] Results were expressed as clotting time in seconds. In a second system, the hemostatic composition was dried on a cellulose matrix (filter paper), and 7 μl aliquot of fresh blood or recalcified citrated whole blood was placed in the cellulose matrix; resulting in the spreading (perfusion) of the applied blood as an enlarging disk. Upon clotting or reduced perfusion, the further spread of the blood ceases. The surface area of the spread blood in mm^2 is used as an indication of the clotting rate of the blood. Results are expressed as mean±standard deviation. The number of samples run is indicated at the top of each data column.\n(§4) This study was undertaken using platelet-rich and platelet-poor plasma to simulate an individual with normal and reduced platelet levels."}, "[5]": {"system": "Platelet Poor Plasma (PPP)", "settings": "2.9 mM AgNO3, n = 8", "procedure": "as §3, §4"}, "[6]": {"settings": "Study I, filter paper impregnated with 5% AgNO3, 2% collagen or the combination as labelled, n = 13"}, "[7]": {"settings": "Study II, filter paper impregnated with 5% AgNO3, 2% collagen or the combination as labelled, n = 5"}, "[8]": {"settings": "final concentration in blood: 1% collagen, 0.6 mM AgNO3 or the combination as labelled, n = 41"}, "[9]": {"settings": "thrombin 0.025 U/mL final, silver ion 2.9 mM final, n = 8"}}, "data": [{"compound": "heparin [reference compound]", "values": [{"measurement": "Clotting time", "setting": "[1]; citrated blood with heparin 2 U/mL, recalcified, silver nitrate 0.05% (in some cases 0.01%), heparinase 1 U/mL, n = 5", "result": "1930 ± 83", "unit": "s"}]}, {"compound": "collagen", "values": [{"measurement": "Perfusion", "setting": "[2]; [6]", "result": "35 ± 23", "unit": "mm"}, {"measurement": "Perfusion", "setting": "[2]; [7]", "result": "28 ± 10", "unit": "mm"}, {"measurement": "Clotting time", "setting": "[3]; [8]", "result": "264 ± 37", "unit": "s"}]}, {"compound": "O=[N+]([O-])[O-].[Ag+]", "note": "[silver(I), silver nitrate]", "values": [{"measurement": "clotting time (FIG. 4, C and D)", "setting": "[1]; 0.25 U/ml heparin, 0.05% or 0.3% silver (I) ion, absence of collagen", "result": "prolonged clotting time"}, {"measurement": "Clotting time", "setting": "[1]; heparinized blood, without silver 1930 seconds", "result": 872, "unit": "s"}, {"measurement": "physical characteristics of the clot (clot strength), SONOCLOT tracing", "setting": "[1]; heparinized whole blood", "result": "stronger clot"}, {"measurement": "Perfusion", "setting": "[2]; [6]", "result": "18 ± 4", "unit": "mm"}, {"measurement": "Perfusion", "setting": "[2]; Study II, filter paper impregnated with 1% AgNO3, n = 5", "result": "42 ± 18", "unit": "mm"}, {"measurement": "Perfusion", "setting": "[2]; [7]", "result": "17 ± 2", "unit": "mm"}, {"measurement": "Clotting time", "setting": "[3]; [8]", "result": "220 ± 50", "unit": "s"}, {"measurement": "clot strength, SONOCLOT tracing", "setting": "[3]; non-heparinized blood", "result": "the clot is stronger"}, {"measurement": "Clotting time", "setting": "[3]; non-heparinized blood, without silver 217 seconds", "result": 81, "unit": "s"}, {"measurement": "Clotting time", "setting": "[3]; normal blood, 2.9 mM AgNO3, n = 8", "result": "109 ± 20", "unit": "s"}, {"measurement": "Clotting time", "setting": "[3]; recalcified citrated whole blood, heparin not given, silver nitrate 0.05% (in some cases 0.01%), heparinase 1 U/mL, n = 5", "result": "94 ± 35", "unit": "s"}, {"measurement": "clot strength, SONOCLOT tracing", "setting": "[3]; second study", "result": "stronger clot"}, {"measurement": "Clotting time", "setting": "[3]; second study, without silver 588 seconds", "result": 168, "unit": "s"}, {"measurement": "Clotting time", "setting": "[3]; [9]", "result": "91 ± 14", "unit": "s"}, {"measurement": "Clotting time", "setting": "[4]", "result": "83 ± 29", "unit": "s"}, {"measurement": "Clotting time", "setting": "[5]", "result": "128 ± 32", "unit": "s"}]}, {"compound": "thrombin", "values": [{"measurement": "Clotting time", "setting": "[3]; [9]", "result": "156 ± 42", "unit": "s"}]}]}
